EP4810052A2, “HCRHR2 SELECTIVE POLYPEPTIDES” (Gubra A/S, priority 2023, dated 2026)
Starred links: 1 amine or outer side, 2 acyl side, 3 side chain; linkers in the order of their positions; H or OH if unused. Residues, ends and D or L forms follow the SMILES beside them. Groups on a side chain read outwards from the residue. *: point of attachment. C20 diacid = O=C(O)CCCCCCCCCCCCCCCCCCC(=O)*; γGlu = O=C(O)[C@H](CCC(=O)[*:2])N[*:1]; AEEA = NCCOCCOCC(=O)O

Experiment: Telemetry in Spontaneously Hypertensive Rats
Format: in vivo
Details: for Heart rate / Mean arterial pressure: rats
Source text: Blood pressure and heart rate were monitored in freely moving conscious animals by […] (DSI Data Science International, MN, USA). Female adult hypertensive rats (SHR) were implanted with transmitters. After shaving the abdominal wall, a midline abdominal incision was made, and the fluid-filled sensor catheter was inserted upstream into the exposed descending aorta between the iliac bifurcation and the renal arteries. According to the DSI guidelines the tip of the telemetric catheter was located just caudal to the renal arteries and secured by tissue adhesive. The transmitter body was affixed to the inner peritoneal - 3 - wall before closure of abdomen. A two-layer closure of the abdominal incision was used, with individual suturing of the peritoneum and the muscle wall followed by closure of the outer skin. Surgery was performed under aseptic conditions. For postsurgical protection against infections and pain a single dosage of an antibiotic (Ursocyclin 10% pro inj., Serumwerk, s.c.) and analgesic were injected (Rimadyl®, 4 mg/kg s.c., Pfizer, Germany). All animals were single-housed at 22-24°C ambient temperature and maintained on a 12/12 h dark-light cycle with free access to standard laboratory rat chow and water ad libitum.
All animals were treated with daily s.c. doses of vehicle or SEQ ID NO: 3, (10 or 30 nmol/kg) for 7 days (1 ml/kg). Drug administration took place at 9.00 a.m. (= 0 hours). For analysis, data were grouped to provide half-hourly averages.
For statistical analysis, 24 hours means were calculated starting from time of dosing. All data were evaluated using a 2-way ANOVA with Dunnett's test.

[1] = SHR rats, daily s.c. 10 or 30 nmol/kg for 7 days

In the case of `CC[C@H](C)[C@H](N)C(=O)N[C@H](C(=O)N[C@@H](CC(C)C)C(=O)N[C@@H](CO)C(=O)N[C@@H](CC(C)C)C(=O)N[C@@H](CC(=O)O)C(=O)N[C@H](C(=O)N1CCC[C@H]1C(=O)N[C@H](C(=O)NCC(=O)N[C@@H](CC(C)C)C(=O)N[C@@H](CC(C)C)C(=O)N[C@@H](CCC(N)=O)C(=O)N[C@H](C(=O)N[C@@H](CC(C)C)C(=O)N[C@@H](CC(C)C)C(=O)N[C@@H](CCC(=O)O)C(=O)N[C@@H](CCC(N)=O)C(=O)N[C@@H](C)C(=O)N[C@@H](CCCNC(=N)N)C(=O)N[C@@H](C)C(=O)N[C@@H](CCCNC(=N)N)C(=O)N[C@@H](C)C(=O)N[C@@H](C)C(=O)N[C@@H](CCCNC(=N)N)C(=O)N[C@@H](CCC(=O)O)C(=O)N[C@@H](CCC(N)=O)C(=O)N[C@@H](C)C(=O)N[C@@H](CCCCNC(=O)COCCOCCNC(=O)COCCOCCNC(=O)CC[C@H](NC(=O)CC[C@H](NC(=O)CCCCCCCCCCCCCCCCCCC(=O)O)C(=O)O)C(=O)O)C(=O)N[C@H](C(=O)N[C@@H](CC(N)=O)C(=O)N[C@@H](C)C(=O)N[C@@H](CCC(=O)O)C(=O)N[C@H](C(=O)N[C@@H](CC(C)C)C(=O)N[C@@H](C)C(=O)N[C@@H](CCC(=O)O)C(=O)N[C@H](C(N)=O)C(C)C)[C@@H](C)CC)[C@@H](C)O)[C@@H](C)CC)[C@@H](C)CC)C(C)C)C(C)C` [SEQ ID NO: 3] (H-IVLSLDVPIGLLQILLEQARARAAREQAK([AEEA-AEEA-γGlu-γGlu-C20 diacid])TNAEILAEV-NH2), the HR [1] is reported as “transient and dose-dependent increase”, the blood pressure [1] is reported as “transient and dose-dependent decrease” and the Heart rate (10 nmol/kg, Day 0) is reported as 345.67 ± 5.3 BPM. The Mean arterial pressure (10 nmol/kg, Day 0) was 130.83 ± 2.1 mmHg, the Heart rate (10 nmol/kg, Day 1) was 330.67 ± 6.2 BPM and the Mean arterial pressure (10 nmol/kg, Day 1) was 130.33 ± 1.8 mmHg. The Heart rate (10 nmol/kg, Day 2) was 324.00 ± 5.2 BPM, the Mean arterial pressure (10 nmol/kg, Day 2) was 136.17 ± 2.0 mmHg and the Heart rate (10 nmol/kg, Day 3) was 324.00 ± 5.2 BPM. The Mean arterial pressure (10 nmol/kg, Day 3) was 139.17 ± 2.3 mmHg, the Heart rate (10 nmol/kg, Day 4) was 323.33 ± 7.4 BPM and the Mean arterial pressure (10 nmol/kg, Day 4) was 137.67 ± 2.4 mmHg. The Heart rate (10 nmol/kg, Day 5) was 320.50 ± 7.0 BPM, the Mean arterial pressure (10 nmol/kg, Day 5) was 139.00 ± 2.9 mmHg and the Heart rate (10 nmol/kg, Day 6) was 315.67 ± 7.2 BPM. It also gave a Mean arterial pressure (10 nmol/kg, Day 6) of 138.50 ± 2.4 mmHg, a Heart rate (10 nmol/kg, Day -1) of 314.50 ± 4.8 BPM and a Mean arterial pressure (10 nmol/kg, Day -1) of 145.33 ± 3.1 mmHg. It also gave a Heart rate (30 nmol/kg, Day 0) of 364.50 ± 5.4 BPM, a Mean arterial pressure (30 nmol/kg, Day 0) of 126.25 ± 2.5 mmHg and a Heart rate (30 nmol/kg, Day 1) of 334.00 ± 4.8 BPM. For the same compound, the Mean arterial pressure (30 nmol/kg, Day 1) was 130.00 ± 2.4 mmHg, the Heart rate (30 nmol/kg, Day 2) was 327.50 ± 2.7 BPM and the Mean arterial pressure (30 nmol/kg, Day 2) was 141.00 ± 3.1 mmHg. The Heart rate (30 nmol/kg, Day 3) was 325.88 ± 4.2 BPM, the Mean arterial pressure (30 nmol/kg, Day 3) was 142.50 ± 2.7 mmHg and the Heart rate (30 nmol/kg, Day 4) was 325.38 ± 6.4 BPM. It also gave a Mean arterial pressure (30 nmol/kg, Day 4) of 141.00 ± 3.1 mmHg, a Heart rate (30 nmol/kg, Day 5) of 323.50 ± 5.5 BPM and a Mean arterial pressure (30 nmol/kg, Day 5) of 141.75 ± 2.6 mmHg. It also gave a Heart rate (30 nmol/kg, Day 6) of 328.88 ± 5.8 BPM, a Mean arterial pressure (30 nmol/kg, Day 6) of 141.75 ± 2.7 mmHg and a Heart rate (30 nmol/kg, Day -1) of 322.38 ± 5.9 BPM. It also gave a Mean arterial pressure (30 nmol/kg, Day -1) of 148.88 ± 3.1 mmHg.
